# Laboratory results taken from ChEMBL document CHEMBL5252648, “Design, synthesis and bioactivity evaluation of a series of quinazolinone derivatives as potent PI3Kγ antagonist” (Bioorg Med Chem, 2023).
# The source made the active and inactive calls. No cut-off for these calls is given here.
# Tests used:
# [1] = molecular target: T1, Phosphatidylinositol 4,5-bisphosphate 3-kinase catalytic subunit delta isoform (Homo sapiens, UniProt O00329); experiment: Antagonist activity at PI3Kdelta (unknown origin) using PIP2 as substrate in presence of ATP incubated for 30 to 60 mins by ADP-glo based luminescence assay
# T1 sequence (O00329 whole entry): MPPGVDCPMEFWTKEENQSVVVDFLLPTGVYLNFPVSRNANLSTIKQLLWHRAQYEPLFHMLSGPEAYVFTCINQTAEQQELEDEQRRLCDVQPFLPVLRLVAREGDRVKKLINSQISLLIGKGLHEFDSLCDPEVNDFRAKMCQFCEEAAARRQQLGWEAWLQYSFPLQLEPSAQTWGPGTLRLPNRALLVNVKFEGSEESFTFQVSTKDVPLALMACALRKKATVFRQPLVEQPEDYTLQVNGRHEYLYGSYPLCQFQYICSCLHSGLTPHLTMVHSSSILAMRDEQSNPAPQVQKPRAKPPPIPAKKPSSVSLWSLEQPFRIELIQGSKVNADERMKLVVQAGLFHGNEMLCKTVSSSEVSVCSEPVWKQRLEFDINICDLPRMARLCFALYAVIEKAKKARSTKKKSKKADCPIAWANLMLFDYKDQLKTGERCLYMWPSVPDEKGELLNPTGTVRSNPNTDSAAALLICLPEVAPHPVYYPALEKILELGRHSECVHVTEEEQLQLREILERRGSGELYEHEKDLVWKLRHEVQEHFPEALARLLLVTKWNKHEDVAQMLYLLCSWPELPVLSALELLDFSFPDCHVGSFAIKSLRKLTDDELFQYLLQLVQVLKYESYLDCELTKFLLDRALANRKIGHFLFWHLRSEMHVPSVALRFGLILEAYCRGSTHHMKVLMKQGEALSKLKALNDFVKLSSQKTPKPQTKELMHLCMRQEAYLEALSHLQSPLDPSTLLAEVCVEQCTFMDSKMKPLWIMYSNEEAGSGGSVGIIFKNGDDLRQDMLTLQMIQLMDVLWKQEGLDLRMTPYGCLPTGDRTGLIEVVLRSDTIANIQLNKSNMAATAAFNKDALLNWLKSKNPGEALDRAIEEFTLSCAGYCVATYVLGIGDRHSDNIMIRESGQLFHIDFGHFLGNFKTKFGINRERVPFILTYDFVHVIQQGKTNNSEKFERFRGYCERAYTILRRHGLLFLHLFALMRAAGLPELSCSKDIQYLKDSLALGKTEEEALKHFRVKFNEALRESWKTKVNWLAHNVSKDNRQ
# [2] = test system: Jurkat; experiment: Cytotoxicity against human Jurkat cells assessed as reduction in cell viability incubated for 24 hrs by CCK-8 assay; assay type: functional, cell-based
# [3] = test system: MDA-MB-231; experiment: Cytotoxicity against human MDA-MB-231 cells assessed as reduction in cell viability incubated for 24 hrs by CCK-8 assay; assay type: functional, cell-based; conditions: MDA-MB-231, 24 h
# [4] = test system: 4T1; experiment: Cytotoxicity against mouse 4T1 cells assessed as reduction in cell viability incubated for 24 hrs by CCK-8 assay; assay type: functional, cell-based; conditions: 4T1, 24 h
# [5] = test system: T47D; experiment: Cytotoxicity against human T47D cells assessed as reduction in cell viability incubated for 24 hrs by CCK-8 assay; assay type: functional, cell-based
# [6] = test system: A549; experiment: Cytotoxicity against human A549 cells assessed as reduction in cell viability incubated for 24 hrs by CCK-8 assay; assay type: functional, cell-based; conditions: A549, 24 h
# [7] = test system: B16-F10; experiment: Cytotoxicity against mouse B16-F10 cells assessed as reduction in cell viability incubated for 24 hrs by CCK-8 assay; assay type: functional, cell-based; conditions: B16-F10, 24 h
# [8] = Cytotoxicity against mouse L929 cells assessed as reduction in cell viability incubated for 24 hrs by CCK-8 assay; assay type: toxicity, cell-based
# [9] = test system: Huh-7; experiment: Cytotoxicity against human Huh-7 cells assessed as reduction in cell viability incubated for 24 hrs by CCK-8 assay; assay type: functional, cell-based; conditions: Huh-7, 24 h
# [10] = test system: Jurkat; experiment: Induction of apoptosis against human Jurkat cells assessed as viable cells at 0.1 uM measured for 24 hrs by Annexin V-FITC/propidium iodide staining based flow cytometry (reference value: 94.2 %); assay type: functional; conditions: read-out: Activity
# [11] = test system: Jurkat; experiment: Induction of apoptosis against human Jurkat cells assessed as early apoptotic cells at 0.1 uM measured for 24 hrs by Annexin V-FITC/propidium iodide staining based flow cytometry (reference value: 5.76%); assay type: functional
# [12] = test system: Jurkat; experiment: Induction of apoptosis against human Jurkat cells assessed as necrotic cells at 1 uM measured for 24 hrs by Annexin V-FITC/propidium iodide staining based flow cytometry (reference value: 0.00%); assay type: functional
# [13] = test system: Jurkat; experiment: Induction of apoptosis against human Jurkat cells assessed as necrotic cells at 10 uM measured for 24 hrs by Annexin V-FITC/propidium iodide staining based flow cytometry (reference value: 0.00%); assay type: functional
# [14] = test system: THP-1; experiment: Induction of apoptosis against human THP-1 cells assessed as viable cells at 0.1 uM measured for 24 hrs by Annexin V-FITC/propidium iodide staining based flow cytometry (reference value: 85.6%); assay type: functional; conditions: read-out: Activity
# [15] = test system: THP-1; experiment: Induction of apoptosis against human THP-1 cells assessed as late apoptotic cells at 0.1 uM measured for 24 hrs by Annexin V-FITC/propidium iodide staining based flow cytometry (reference value: 3.70%); assay type: functional
# [16] = molecular target: Serine/threonine-protein kinase AKT (Homo sapiens) (UniProt P31751+Q9Y243+P31749); experiment: Inhibition of AKT phosphorylation in human THP-1 cells at 1 uM incubated for 1 to 12 hrs by Western blot analysis relative to control; assay type: cell-based; conditions: time 1-12 hrs
# Chain of Serine/threonine-protein kinase AKT (Homo sapiens) (P31749 whole entry, looked up): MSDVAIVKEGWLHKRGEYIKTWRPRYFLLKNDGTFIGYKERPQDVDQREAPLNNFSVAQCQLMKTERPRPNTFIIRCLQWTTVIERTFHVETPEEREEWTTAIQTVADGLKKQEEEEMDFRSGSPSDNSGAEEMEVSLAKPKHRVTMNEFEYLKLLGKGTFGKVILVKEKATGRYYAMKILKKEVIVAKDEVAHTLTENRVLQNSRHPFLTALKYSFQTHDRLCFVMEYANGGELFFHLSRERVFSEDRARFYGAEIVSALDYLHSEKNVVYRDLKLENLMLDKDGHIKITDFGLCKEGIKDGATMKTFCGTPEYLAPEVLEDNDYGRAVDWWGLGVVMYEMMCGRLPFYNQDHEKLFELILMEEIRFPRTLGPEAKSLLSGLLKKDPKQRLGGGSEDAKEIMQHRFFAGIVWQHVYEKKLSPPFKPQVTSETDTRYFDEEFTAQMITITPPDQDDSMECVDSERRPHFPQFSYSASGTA
# Chain of Serine/threonine-protein kinase AKT (Homo sapiens) (P31751 whole entry, looked up): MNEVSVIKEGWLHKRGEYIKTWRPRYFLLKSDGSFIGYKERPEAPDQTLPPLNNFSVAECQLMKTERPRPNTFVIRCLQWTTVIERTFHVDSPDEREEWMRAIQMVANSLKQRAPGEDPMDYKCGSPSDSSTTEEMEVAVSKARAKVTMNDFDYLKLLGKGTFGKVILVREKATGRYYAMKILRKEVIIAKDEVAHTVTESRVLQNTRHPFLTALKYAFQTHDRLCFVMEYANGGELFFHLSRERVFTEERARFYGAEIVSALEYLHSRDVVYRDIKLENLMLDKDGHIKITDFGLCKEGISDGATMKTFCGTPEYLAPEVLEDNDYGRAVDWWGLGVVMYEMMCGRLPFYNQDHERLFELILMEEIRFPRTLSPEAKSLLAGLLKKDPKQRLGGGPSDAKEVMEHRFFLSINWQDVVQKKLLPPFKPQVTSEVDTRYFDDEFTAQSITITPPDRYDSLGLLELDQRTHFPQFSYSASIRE
# Chain of Serine/threonine-protein kinase AKT (Homo sapiens) (Q9Y243 whole entry, looked up): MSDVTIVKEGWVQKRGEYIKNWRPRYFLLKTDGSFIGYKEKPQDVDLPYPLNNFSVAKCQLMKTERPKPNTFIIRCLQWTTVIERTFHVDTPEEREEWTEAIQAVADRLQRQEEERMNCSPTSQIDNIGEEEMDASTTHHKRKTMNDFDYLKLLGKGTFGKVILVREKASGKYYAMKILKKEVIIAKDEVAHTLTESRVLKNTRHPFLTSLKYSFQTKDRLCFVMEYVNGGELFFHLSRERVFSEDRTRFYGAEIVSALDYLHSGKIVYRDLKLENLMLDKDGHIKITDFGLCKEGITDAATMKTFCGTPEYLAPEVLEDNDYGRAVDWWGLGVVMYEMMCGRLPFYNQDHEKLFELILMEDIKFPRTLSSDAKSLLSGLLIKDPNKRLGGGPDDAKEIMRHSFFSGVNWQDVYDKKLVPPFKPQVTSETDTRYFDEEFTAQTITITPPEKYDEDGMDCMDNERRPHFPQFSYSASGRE
# [17] = test system: RAW264.7; experiment: Inhibition of AKT phosphorylation in mouse RAW264.7 cells at 1 uM incubated for 1 to 12 hrs by Western blot analysis relative to control; assay type: cell-based; conditions: time 1-12 hrs
# [18] = test system: RAW264.7; experiment: Inhibition of AKT phosphorylation in mouse RAW264.7 cells incubated for 1 to 12 hrs by Western blot analysis relative to control; assay type: cell-based; conditions: dose 0.1-10 µM, time 1-12 hrs
# [19] = test system: Jurkat; experiment: Upregulation of phosphorylated p38 protein expression in human Jurkat cells measured for 3 hrs; assay type: functional, cell-based; conditions: dose 0.1-10 µM
# [20] = test system: THP-1; experiment: Induction of apoptosis against human THP-1 cells assessed as viable cells at 1 uM measured for 24 hrs by Annexin V-FITC/propidium iodide staining based flow cytometry (reference value: 85.6%); assay type: functional; conditions: read-out: Activity
# [21] = test system: THP-1; experiment: Induction of apoptosis against human THP-1 cells assessed as early apoptotic cells at 1 uM measured for 24 hrs by Annexin V-FITC/propidium iodide staining based flow cytometry (reference value: 10.3%); assay type: functional
# [22] = test system: THP-1; experiment: Induction of apoptosis against human THP-1 cells assessed as necrotic cells at 1 uM measured for 24 hrs by Annexin V-FITC/propidium iodide staining based flow cytometry (reference value: 0.316%); assay type: functional
# [23] = test system: THP-1; experiment: Induction of apoptosis against human THP-1 cells assessed as viable cells at 10 uM measured for 24 hrs by Annexin V-FITC/propidium iodide staining based flow cytometry (reference value: 85.6%); assay type: functional; conditions: read-out: Activity
# [24] = test system: THP-1; experiment: Induction of apoptosis against human THP-1 cells assessed as late apoptotic cells at 10 uM measured for 24 hrs by Annexin V-FITC/propidium iodide staining based flow cytometry (reference value: 3.70%); assay type: functional
# [25] = test system: THP-1; experiment: Induction of apoptosis against human THP-1 cells assessed as necrotic cells at 10 uM measured for 24 hrs by Annexin V-FITC/propidium iodide staining based flow cytometry (reference value: 0.316%); assay type: functional
structure (smiles),measurement,setting,value
COc1ccc(C#Cc2cccc3cc(C(C)Nc4ncnc5[nH]cnc45)n(-c4ccccc4)c(=O)c23)cc1 (stereo not given),IC50,[1],0.0131 µM
same,IC50,[2],2.41 µM
same,IC50,[3],6.6 µM
same,IC50,[4],9.76 µM
same,IC50,[5],> 100 µM
same,IC50,[6],> 100 µM
same,IC50,[7],> 100 µM
same,IC50 at 24 h,[8],> 100 µM
same,IC50,[9],5.05 µM
same,viability at 0.1 µM,[10],66.8%
same,Activity,[11],10.9%
same,Activity,[12],0%
same,Activity,[13],0.016%
same,viability at 0.1 µM,[14],66.8%
same,Activity,[15],7.85%
same,inhibition,[16],Active
same,inhibition,[17],Active
same,inhibition,[18],Dose-Dependent Effect
same,Activity,[19],Dose-Dependent Effect
same,viability at 1 µM,[20],59.6%
same,Activity,[21],35.7%
same,Activity,[22],0.041%
same,viability at 10 µM,[23],60.7%
same,Activity,[24],14.6%
same,Activity,[25],0.053%
